Assay results: patent US4072744A, “N^2 -naphthalenesulfonyl-L-argininamides and the pharmaceutically acceptable salts thereof” (Mitsubishi Chemical Industries Limited, priority 1974, dated 1978)

Experiment: acute toxicity (LD50) by intraperitoneal administration in mice
Settings: mouse, in vivo, ip, mice (male, 20 g)
Excerpt: Representative LD50 values, for example, for N^2 -(5,6,7,8-tetrahydro-1-naphthalenesulfonyl)-N-methoxyethylglycine, N^2 -(7-methyl-2-naphthalenesulfonyl)-N-butylglycine and N^2 -(6,7-dimethyl-1-naphthalenesulfonyl)-N-methoxyethylglycine are above 1,500 milligrams per kilogram, respectively.
Work on `CCCCN(CC(=O)O)C(=O)[C@H](CCCNC(=N)N)NS(=O)(=O)c1ccc2ccc(C)cc2c1` [Sample 14, N^2-(7-methyl-2-naphthalenesulfonyl)-L-arginyl-N-butylglycine] yielded an LD50 greater than 1500 mg/kg. With `COCCN(CC(=O)O)C(=O)[C@H](CCCNC(=N)N)NS(=O)(=O)c1cccc2cc(C)c(C)cc12` [Sample 23, N^2-(6,7-dimethyl-1-naphthalenesulfonyl)-L-arginyl-N-methoxyethylglycine] the LD50 was greater than 1500 mg/kg. Compound `COCCN(CC(=O)O)C(=O)[C@H](CCCNC(=N)N)NS(=O)(=O)c1cccc2c1CCCC2` [Sample 3, N^2-(5,6,7,8-tetrahydro-1-naphthalenesulfonyl)-L-arginyl-N-methoxyethylglycine] has an LD50 greater than 1500 mg/kg.
